Source: ChEMBL document CHEMBL5634159, “Discovery of novel tumor-targeted near-infrared probes with 6-substituted pyrrolo[2,3-d]pyrimidines as targeting ligands” (Eur J Med Chem, 2023)
Activity calls are given as the source filed them. No cut-off for these calls is given here.

Legend:
KB [1] = assay: Binding affinity to Folate receptor in human KB cells assessed as relative fluorescence intensity incubated for 1 hr by flow cytometry analysis; type: cell-based
KB [2] = assay: Binding affinity to Folate receptor in human KB cells assessed as relative fluorescence intensity preincubated with compound for 1 hr followed by folic acid addition and measured after 1 hr by flow cytometry analysis; type: cell-based; conditions: time 2.0 hrs
Folate receptor alpha = Folate receptor alpha (Homo sapiens, UniProt P15328); assay: Binding affinity to Folate receptor alpha in human KB cells assessed as dissociation constant; type: cell-based
Folate receptor beta = Folate receptor beta (Mus musculus, UniProt Q05685); assay: Binding affinity to Folate receptor beta in mouse RAW264.7 cells assessed as dissociation constant; type: cell-based
[3] = Drug uptake in BALB/c nude mouse tumor xenografted with human KB cells assessed as increase in fluorescence signals measured for 2 days; type: ADME, tissue-based, Neoplasm; conditions: in vivo, 48 h, time 2 day
[4] = Drug uptake in BALB/c nude mouse tumor xenografted with human A549 cells assessed as increase in fluorescence signals measured for 2 days; type: ADME, tissue-based, Neoplasm; conditions: 48 h, time 2 day
[5] = Drug uptake in BALB/c mouse tumor xenografted with human KB cells at 10 nmol measured for 8 hrs; type: ADME, tissue-based, Neoplasm; conditions: in vivo
[6] = Drug uptake in BALB/c mouse tumor xenografted with human KB cells at 10 nmol measured for 8 hrs in presence of folic acid; type: ADME, tissue-based, Neoplasm; conditions: in vivo
[7] = Drug uptake in BALB/c mouse tumor xenografted with human A549 cells at 10 nmol measured for 8 hrs in presence of folic acid; type: ADME, tissue-based, Neoplasm
[8] = Ratio of biodistribution in tumor to heart of human KB cell xenografted in BALB/c mouse at 10 nmol measured for 8 hrs; type: ADME, organism-based; conditions: in vivo
[9] = Ratio of biodistribution in tumor to lung of human KB cell xenografted in BALB/c mouse at 10 nmol measured for 8 hrs; type: ADME, organism-based; conditions: in vivo
[10] = Ratio of biodistribution in tumor to liver of human KB cell xenografted in BALB/c mouse at 10 nmol measured for 8 hrs; type: ADME, organism-based; conditions: in vivo
[11] = Half life in BALB/c mouse at 10 nmol measured for 8 hrs; type: ADME; conditions: in vivo
[12] = Elimination half life in BALB/c mouse at 10 nmol measured for 8 hrs; type: ADME; conditions: in vivo, read-out: beta t1/2 (converted)
HUVEC = assay: Cytotoxicity against human HUVEC cells assessed as cell growth inhibition incubated for 24 hrs by CCK-8 assay; type: toxicity, cell-based
[13] = Acute toxicity in ICR mouse assessed as effect on food intake at 10 micromol/ml measured for 14 days; conditions: in vivo, 336 h, dose 10 µmol/ml, time 14 day
[14] = Acute toxicity in ICR mouse assessed as effect on body weight at 10 micromol/ml measured for 14 days; conditions: in vivo, 336 h, dose 10 µmol/ml, time 14 day
[15] = Acute toxicity in ICR mouse assessed as animal death at 10 micromol/ml measured for 14 days; conditions: in vivo, 336 h, dose 10 µmol/ml, time 14 day
[16] = Acute toxicity in ICR mouse assessed as heart damage at 10 micromol/ml measured for 14 days by H and E staining based analysis; type: tissue-based; conditions: in vivo, 336 h, dose 10 µmol/ml, time 14 day
[17] = Acute toxicity in ICR mouse assessed as liver damage at 10 micromol/ml measured for 14 days by H and E staining based analysis; type: tissue-based; conditions: in vivo, 336 h, dose 10 µmol/ml, time 14 day
[18] = Acute toxicity in ICR mouse assessed as spleen damage at 10 micromol/ml measured for 14 days by H and E staining based analysis; type: tissue-based; conditions: in vivo, 336 h, dose 10 µmol/ml, time 14 day
[19] = Acute toxicity in ICR mouse assessed as lung damage at 10 micromol/ml measured for 14 days by H and E staining based analysis; type: tissue-based; conditions: in vivo, 336 h, dose 10 µmol/ml, time 14 day
[20] = Acute toxicity in ICR mouse assessed as kidney damage at 10 micromol/ml measured for 14 days by H and E staining based analysis; type: tissue-based; conditions: in vivo, 336 h, dose 10 µmol/ml, time 14 day
KB [21] = assay: Binding affinity to Folate receptor in human KB cells assessed as increase in fluorescence intensity incubated for 2 hrs by fluorescence microscopic analysis; type: cell-based
[22] = Drug uptake in human A549 cells assessed as increase in fluorescence intensity in presence of folic acid by fluorescence microscopic analysis; type: ADME, cell-based
[23] = Drug uptake in mouse RAW264.7 cells assessed as increase in fluorescence intensity in presence of folic acid by fluorescence microscopic analysis; type: ADME, cell-based
KB [24] = assay: Binding affinity to Folate receptor in human KB cells assessed as relative fluorescence intensity incubated for compound for 1 hr by flow cytometry analysis; type: cell-based
[25] = Ex vivo biodistribution in BALB/c mouse tumor of human KB cells expressing folate receptor alpha measured for 8 hrs by imaging analysis; type: ADME, organism-based, Neoplasm
[26] = Drug uptake in BALB/c mouse heart xenografted with human KB cells at 10 nmol measured for 8 hrs; type: ADME, tissue-based; conditions: in vivo
[27] = Drug uptake in BALB/c mouse lung xenografted with human KB cells at 10 nmol measured for 8 hrs; type: ADME, tissue-based; conditions: in vivo
[28] = Drug uptake in BALB/c mouse liver xenografted with human KB cells at 10 nmol measured for 8 hrs; type: ADME, tissue-based; conditions: in vivo
[29] = Drug uptake in BALB/c mouse spleen xenografted with human KB cells at 10 nmol measured for 8 hrs; type: ADME, tissue-based; conditions: in vivo
[30] = Drug uptake in BALB/c mouse stomach xenografted with human KB cells at 10 nmol measured for 8 hrs; type: ADME, tissue-based; conditions: in vivo
[31] = Drug uptake in BALB/c mouse kidney xenografted with human KB cells at 10 nmol measured for 8 hrs; type: ADME, tissue-based; conditions: in vivo
[32] = Drug uptake in BALB/c mouse intestine xenografted with human KB cells at 10 nmol measured for 8 hrs; type: ADME, tissue-based; conditions: in vivo

Chain of Folate receptor beta (Q05685 whole entry): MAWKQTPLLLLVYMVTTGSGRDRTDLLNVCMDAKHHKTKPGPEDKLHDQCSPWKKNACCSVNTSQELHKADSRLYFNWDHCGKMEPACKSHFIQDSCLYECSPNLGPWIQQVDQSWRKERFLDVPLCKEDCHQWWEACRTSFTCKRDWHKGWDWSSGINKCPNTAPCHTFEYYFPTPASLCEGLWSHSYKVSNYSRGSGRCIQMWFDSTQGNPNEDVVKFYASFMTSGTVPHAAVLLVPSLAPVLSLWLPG
Chain of Folate receptor alpha (P15328 whole entry): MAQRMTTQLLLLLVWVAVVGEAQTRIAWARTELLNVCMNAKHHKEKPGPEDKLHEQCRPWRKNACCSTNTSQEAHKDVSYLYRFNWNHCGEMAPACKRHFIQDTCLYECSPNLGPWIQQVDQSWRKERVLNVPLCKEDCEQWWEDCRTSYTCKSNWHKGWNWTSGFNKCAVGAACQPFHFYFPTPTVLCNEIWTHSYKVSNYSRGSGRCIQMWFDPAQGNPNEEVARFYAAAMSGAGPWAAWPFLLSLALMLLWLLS

In the case of `CC1(C)C(/C=C/C2=C(Oc3ccc(C[C@H](NC(=O)c4ccc(CCCCc5cc6c(=O)[nH]c(N)nc6[nH]5)cc4)C(=O)O)cc3)C(=C/C=C3/N(CCCCS(=O)(=O)O)c4ccccc4C3(C)C)/CCC2)=[N+](CCCCS(=O)(=O)[O-])c2ccccc21`, the Activity (KB [1]) is reported as “Active”, the Activity (KB [2]) is reported as “Active” and the Kd (Folate receptor alpha) is reported as 14.2 nM. The Kd (Folate receptor beta) was 16 nM, the Drug uptake [3] was “Active” and the Drug uptake [4] was “Not Active”. The Drug uptake [5] was “Active”, the Drug uptake [6] was “Not Active” and the Drug uptake [7] was “Not Active”. The Ratio [8] was 13, the Ratio [9] was 8 and the Ratio [10] was 2. The half-life [11] was 15 min, the half-life [12] was 60 min and the Activity (HUVEC) was “Non-Toxic”. The Activity [13] was “Non-Toxic”, the Activity [14] was “Non-Toxic” and the Activity [15] was “Non-Toxic”. For the same compound, the Activity [16] was “Non-Toxic”, the Activity [17] was “Non-Toxic” and the Activity [18] was “Non-Toxic”. For the same compound, the Activity [19] was “Non-Toxic” and the Activity [20] was “Non-Toxic”.

For `CC1(C)C(/C=C/C2=C(Oc3ccc(C[C@H](NC(=O)c4ccc(NCc5cnc6nc(N)[nH]c(=O)c6n5)cc4)C(=O)O)cc3)C(=C/C=C3/N(CCCCS(=O)(=O)O)c4ccccc4C3(C)C)/CCC2)=[N+](CCCCS(=O)(=O)[O-])c2ccccc21`, the Activity (KB [1]) was “Active”, the Kd (Folate receptor alpha) was 22.1 nM and the Kd (Folate receptor beta) was 20.9 nM. The Drug uptake [3] was “Active” and the Activity (HUVEC) was “Non-Toxic”.

With `CC1(C)C(/C=C/C2=C(Oc3ccc(C[C@H](NC(=O)CNC(=O)Cc4cc5c(=O)[nH]c(N)nc5[nH]4)C(=O)O)cc3)C(=C/C=C3/N(CCCCS(=O)(=O)O)c4ccccc4C3(C)C)/CCC2)=[N+](CCCCS(=O)(=O)[O-])c2ccccc21` the Activity (KB [21]) was “Active”, the Drug uptake [22] was “Not Active” and the Drug uptake [23] was “Not Active”. The Activity (KB [24]) was “Active”, the Activity (KB [2]) was “Active” and the Kd (Folate receptor alpha) was 39.8 nM. The Kd (Folate receptor beta) was 26.1 nM, the Drug uptake [3] was “Active” and the Drug uptake [25] was “Active”. For the same compound, the Drug uptake [26] was “Not Active”, the Drug uptake [27] was “Not Active” and the Drug uptake [28] was “Not Active”. The Drug uptake [29] was “Not Active”, the Drug uptake [30] was “Not Active” and the Drug uptake [31] was “Not Active”. For the same compound, the Drug uptake [32] was “Not Active” and the Activity (HUVEC) was “Non-Toxic”.

With `CC1(C)C(/C=C/C2=C(SC[C@H](NC(=O)CNC(=O)Cc3cc4c(=O)[nH]c(N)nc4[nH]3)C(=O)O)C(=C/C=C3/N(CCCCS(=O)(=O)O)c4ccccc4C3(C)C)/CCC2)=[N+](CCCCS(=O)(=O)[O-])c2ccccc21` the Activity (KB [24]) was “inactive”, the Kd (Folate receptor alpha) was 81.9 nM and the Kd (Folate receptor beta) was 58.9 nM. The Drug uptake [25] was “Active”, the Drug uptake [26] was “Not Active” and the Drug uptake [27] was “Not Active”. For the same compound, the Drug uptake [28] was “Not Active”, the Drug uptake [29] was “Not Active” and the Drug uptake [30] was “Not Active”. The Drug uptake [31] was “Not Active”, the Drug uptake [32] was “Not Active” and the Activity (HUVEC) was “Non-Toxic”.

For `CC1(C)C(/C=C/C2=C(SC[C@@H](NC(=O)CC[C@H](NC(=O)CNC(=O)Cc3cc4c(=O)[nH]c(N)nc4[nH]3)C(=O)O)C(=O)O)C(=C/C=C3/N(CCCCS(=O)(=O)O)c4ccccc4C3(C)C)/CCC2)=[N+](CCCCS(=O)(=O)[O-])c2ccccc21`, the Activity (KB [24]) was “inactive”, the Kd (Folate receptor alpha) was 61.2 nM and the Kd (Folate receptor beta) was 47.9 nM. For the same compound, the Drug uptake [25] was “Active”, the Drug uptake [26] was “Not Active” and the Drug uptake [27] was “Not Active”. For the same compound, the Drug uptake [28] was “Not Active”, the Drug uptake [29] was “Not Active” and the Drug uptake [30] was “Not Active”. The Drug uptake [31] was “Not Active”, the Drug uptake [32] was “Not Active” and the Activity (HUVEC) was “Non-Toxic”.

For `CC1(C)C(/C=C/C2=C(Oc3ccc(C[C@H](NC(=O)c4ccc(CCCCc5cc6c(=O)[nH]c(N)nc6[nH]5)s4)C(=O)O)cc3)C(=C/C=C3/N(CCCCS(=O)(=O)O)c4ccccc4C3(C)C)/CCC2)=[N+](CCCCS(=O)(=O)[O-])c2ccccc21`, the Activity (KB [1]) was “Active”, the Activity (KB [2]) was “Active” and the Kd (Folate receptor alpha) was 10.3 nM. The Kd (Folate receptor beta) was 11 nM, the Drug uptake [3] was “Active” and the Drug uptake [28] was “Active”. For the same compound, the Activity (HUVEC) was “Non-Toxic”.
